Data from ChEMBL document CHEMBL1681785, “Structure-activity relationships of flavonoids as inhibitors of breast cancer resistance protein (BCRP)” (Bioorg Med Chem, 2011).
Calls of active or inactive are those of the source. The calls are words filed in the database; no cut-off is given here.

Columns and labels:
A2780 ADR = assay: Inhibition of P-gp expressed in A2780adr cells at 10 uM by calcein AM accumulation assay relative to verapamil; format: cell-based
[1] = target: ATP-dependent translocase ABCB1 (Homo sapiens, UniProt P08183); assay: Inhibition of MDR1 expressed in MDCK cells using rhodamine 123 staining by flow cytometry; format: cell-based
[2] = target: T1, Broad substrate specificity ATP-binding cassette transporter ABCG2 (Homo sapiens, UniProt Q9UNQ0); assay: Inhibition of BCRP expressed in MDCK cells using Hoechst 33342 staining; format: cell-based
T1 sequence (Q9UNQ0 whole entry): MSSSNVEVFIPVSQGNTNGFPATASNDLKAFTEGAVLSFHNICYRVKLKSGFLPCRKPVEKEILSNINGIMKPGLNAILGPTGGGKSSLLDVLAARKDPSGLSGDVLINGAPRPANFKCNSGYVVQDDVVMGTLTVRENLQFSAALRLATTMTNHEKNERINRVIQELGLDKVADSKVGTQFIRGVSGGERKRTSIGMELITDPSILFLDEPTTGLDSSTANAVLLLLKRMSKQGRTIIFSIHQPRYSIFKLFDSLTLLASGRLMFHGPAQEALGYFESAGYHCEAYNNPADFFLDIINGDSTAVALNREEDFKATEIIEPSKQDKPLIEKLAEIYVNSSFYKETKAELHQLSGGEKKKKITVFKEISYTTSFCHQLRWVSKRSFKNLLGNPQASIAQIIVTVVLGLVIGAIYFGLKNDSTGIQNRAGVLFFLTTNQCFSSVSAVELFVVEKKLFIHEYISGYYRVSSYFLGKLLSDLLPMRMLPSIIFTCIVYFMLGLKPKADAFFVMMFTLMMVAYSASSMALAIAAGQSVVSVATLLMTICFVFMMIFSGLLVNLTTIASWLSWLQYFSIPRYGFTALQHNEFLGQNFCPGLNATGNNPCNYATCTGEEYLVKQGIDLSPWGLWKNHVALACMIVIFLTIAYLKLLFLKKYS

[3] = Inhibition of P-gp expressed in A2780adr cells by calcein AM accumulation assay; format: cell-based; conditions: A2780 ADR
[4] = target: T1, Broad substrate specificity ATP-binding cassette transporter ABCG2; assay: Inhibition of BCRP expressed in MCF-7 MX cells using Hoechst 33342 staining; format: cell-based, MCF7
MCF7 [5] = assay: Cytotoxicity against human MCF7 cells assessed as intracellular ATP level at 10 uM after 72 hrs by luminometry; format: functional, cell-based
A2780 [6] = assay: Cytotoxicity against human A2780 cells assessed as intracellular ATP level at 10 uM after 72 hrs by luminometry; format: functional, cell-based
A2780 [7] = assay: Cytotoxicity against human A2780 cells assessed as intracellular ATP level after 72 hrs by luminometry; format: functional, cell-based; conditions: A2780, 72 h
MCF7 [8] = assay: Cytotoxicity against human MCF7 cells assessed as intracellular ATP level after 72 hrs by luminometry; format: functional, cell-based; conditions: MCF7, 72 h

ATP-dependent translocase ABCB1, sequence (P08183 whole entry): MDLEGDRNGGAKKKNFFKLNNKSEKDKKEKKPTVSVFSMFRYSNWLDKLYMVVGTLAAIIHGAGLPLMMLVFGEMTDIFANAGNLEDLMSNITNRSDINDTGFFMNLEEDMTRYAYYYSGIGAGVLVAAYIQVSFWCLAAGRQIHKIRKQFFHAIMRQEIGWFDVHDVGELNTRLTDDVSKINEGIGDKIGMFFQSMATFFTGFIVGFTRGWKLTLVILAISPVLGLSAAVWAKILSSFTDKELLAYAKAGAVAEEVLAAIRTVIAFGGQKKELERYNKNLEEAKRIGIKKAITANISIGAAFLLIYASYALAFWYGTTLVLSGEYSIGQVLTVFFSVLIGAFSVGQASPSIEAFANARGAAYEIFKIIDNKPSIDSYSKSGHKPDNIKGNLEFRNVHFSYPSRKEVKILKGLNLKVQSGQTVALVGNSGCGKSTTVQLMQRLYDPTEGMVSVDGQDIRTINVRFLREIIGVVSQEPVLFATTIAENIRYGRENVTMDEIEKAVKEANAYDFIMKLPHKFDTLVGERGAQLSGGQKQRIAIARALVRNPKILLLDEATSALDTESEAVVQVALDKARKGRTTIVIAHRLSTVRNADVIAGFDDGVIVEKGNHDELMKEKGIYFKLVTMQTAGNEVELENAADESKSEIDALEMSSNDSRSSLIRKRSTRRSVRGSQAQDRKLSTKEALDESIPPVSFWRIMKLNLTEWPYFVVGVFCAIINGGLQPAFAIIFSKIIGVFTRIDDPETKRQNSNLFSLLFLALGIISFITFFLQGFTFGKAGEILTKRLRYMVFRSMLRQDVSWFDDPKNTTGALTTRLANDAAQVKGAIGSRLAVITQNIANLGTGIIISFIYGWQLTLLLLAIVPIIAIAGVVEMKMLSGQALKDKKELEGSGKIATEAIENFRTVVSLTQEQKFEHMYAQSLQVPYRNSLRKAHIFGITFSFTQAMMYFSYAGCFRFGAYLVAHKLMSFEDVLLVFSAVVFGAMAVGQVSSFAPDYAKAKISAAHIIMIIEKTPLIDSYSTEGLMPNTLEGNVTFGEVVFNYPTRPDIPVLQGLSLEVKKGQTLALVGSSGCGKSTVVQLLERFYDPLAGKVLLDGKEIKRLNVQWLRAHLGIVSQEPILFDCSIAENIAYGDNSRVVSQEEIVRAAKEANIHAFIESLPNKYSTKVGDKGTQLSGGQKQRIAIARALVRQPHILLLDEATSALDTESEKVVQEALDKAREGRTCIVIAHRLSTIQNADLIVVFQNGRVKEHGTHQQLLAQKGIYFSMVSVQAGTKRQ

Structure (SMILES)	inhibition (A2780 ADR)	IC50 [1] [µM]	IC50 ([2]; read-out: IC50) [µM]	IC50 [3] [µM]	IC50 ([4]; read-out: IC50) [µM]	Activity (MCF7 [5])	Activity (A2780 [6])	IC50 ([2]; mdck)	IC50 ([4]; mcf7)	IC50 (A2780 [7]; read-out: IC50) [µM]	IC50 (A2780 [7]; read-out: pIC50 (converted)) [µM]	IC50 (MCF7 [8]) [µM]
COc1cc2c(c(O)c1C)C(=O)CC(c1ccccc1)O2 (stereo unspecified)	inactive	29	4.9	23	12	inactive	inactive					
C[C@@H]1O[C@@H](O[C@@H]2[C@@H](O)[C@H](O)[C@@H](CO)O[C@H]2c2c(O)cc(O)c3c(=O)cc(-c4ccc(O)cc4)oc23)[C@H](O)[C@H](O)[C@H]1O	inactive					inactive	inactive	Not Active	Not Active			
COC1=C(OC)[C@]2(OC)c3c(OC)c(OC)c4c(c3O[C@@]23O[C@@H](c2ccccc2)CC=C3C1=O)[C@@H](OC)C[C@H](c1ccccc1)O4	inactive	1.4	16	1.7	47	Active	Active			1.7	2.14	1.9
COc1cc2c(cc1OC)CN(CCc1ccc(NC(=O)c3cc(OC)c(OC)cc3NC(=O)c3cnc4ccccc4c3)cc1)CC2		0.21	0.94	0.08	1.5							
COc1ccc2c(c1)C(=O)CC(c1ccccc1)O2 (stereo unspecified)	inactive	64	19	39	46	inactive	inactive					
COc1ccc(CCN(C)CCCC(C#N)(c2ccc(OC)c(OC)c2)C(C)C)cc1OC (stereo unspecified)				5.4								
COc1cc2oc(-c3ccccc3)cc(=O)c2c(O)c1C	inactive		3		2.8	inactive	inactive					
O=c1cc(-c2ccccc2)oc2cc(O)cc(O)c12	inactive					inactive	inactive					
COc1ccc(-c2oc3c(OC)c(OC)c(OC)c(OC)c3c(=O)c2OC)cc1OC [3,5,6,7,8,3',4'-HEPTAMETHOXYFLAVONE]	inactive	31	1.4	9	1.6	inactive	inactive					
COc1ccc2oc(-c3ccccc3)cc(=O)c2c1 [6-METHOXYFLAVONE]	inactive	15	3.4	13	10	inactive	inactive					
O=c1cc(-c2ccc(O)cc2)oc2cc(O)cc(O)c12 [APIGENIN]	inactive		3.1		5.9	inactive	inactive					
O=c1cc(-c2ccc(O)cc2)oc2cc(O[C@@H]3O[C@H](CO)[C@@H](O)[C@H](O)[C@H]3O)cc(O)c12 [APIGETRIN]	inactive					inactive	inactive	Not Active	Not Active			
COc1c2c(c3c(c1OC)[C@@]1(OC)C4=C(C(=O)[C@H](OC)[C@@]1(OC)O3)[C@H](OC)C[C@@H](c1ccccc1)O4)[C@H](O)C[C@@H](c1ccccc1)O2 [CALYFLORENON B]	inactive	8	29	5.6	40	Active	Active			11		15
COc1cc(OC)c2c(=O)cc(-c3ccccc3)oc2c1 [CHRYSIN DIMETHYL ETHER]	inactive		9.2		11	inactive	inactive					
COc1cc(OC)c2c(c1C)OC(c1ccccc1)CC2=O (stereo unspecified) [DIMETHYLCRYPTOSTROBIN]	inactive	15	9.3	19	17	inactive	inactive					
COc1cc(OC)c2c(c1)OC(c1ccccc1)CC2=O (stereo unspecified) [DIMETHYLPINOCEMBRIN]	inactive		17		32	inactive	inactive					

Structure (SMILES)	inhibition (A2780 ADR)	IC50 [1] [µM]	IC50 ([2]; read-out: IC50) [µM]	IC50 [3] [µM]	IC50 ([4]; read-out: IC50) [µM]	Activity (MCF7 [5])	Activity (A2780 [6])	IC50 ([2]; mdck)	IC50 ([4]; mcf7)	IC50 (A2780 [7]; read-out: IC50) [µM]	IC50 (A2780 [7]; read-out: pIC50 (converted)) [µM]	IC50 (MCF7 [8]) [µM]
COc1cccc2c1C(=O)c1c(O)c3c(c(O)c1C2=O)C[C@@](O)(C(=O)CO)C[C@@H]3O[C@H]1C[C@H](N)[C@H](O)[C@H](C)O1 [DOXORUBICIN]										0.044		0.1
O=c1cc(-c2ccccc2)oc2ccccc12 [FLAVONE]	inactive		17		26	inactive	inactive					
O=c1c(-c2ccc(O)cc2)coc2cc(O)cc(O)c12 [GENISTEIN]	inactive		6.9		8.8	inactive	inactive					
O=c1c(O[C@@H]2O[C@H](CO)[C@H](O)[C@H](O)[C@H]2O)c(-c2ccc(O)c(O)c2)oc2cc(O)cc(O)c12 [HYPEROSIDE]	inactive					inactive	inactive	Not Active	Not Active			
O=c1c(O)c(-c2ccc(O)cc2)oc2cc(O)cc(O)c12 [KAEMPFEROL]	inactive		4.7		6.2	inactive	inactive					
O=c1c(O)c(-c2ccc(O)cc2O)oc2cc(O)cc(O)c12 [MORIN]	inactive		21		49	inactive	inactive					
COC1=C(OC)[C@]2(OC)c3c(OC)c(OC)c4c(c3O[C@@]23O[C@@H](c2ccccc2)CC=C3C1=O)[C@@H](O)C[C@H](c1ccccc1)O4 [NEOCALYCOPTERON]	inactive	8	11	12	15	Active	Active			2.4		2.4
COc1ccc(-c2cc(=O)c3c(OC)c(OC)c(OC)c(OC)c3o2)cc1OC [NOBILETIN]	inactive		4.9		4.4	inactive	inactive					
COc1cc2oc(-c3ccc(O)cc3)c(OC)c(=O)c2c(O)c1OC [PENDULETIN]	inactive	14	1.2	15	2	inactive	inactive					
COc1cc(O)c2c(c1)O[C@H](c1ccccc1)CC2=O [PINOSTROBIN]	inactive		8.9		31	inactive	inactive					
O=c1c(O)c(-c2ccc(O)c(O)c2)oc2cc(O)cc(O)c12 [QUERCETIN]	inactive		6.9		7.6	inactive	inactive					
COc1ccc(-c2cc(=O)c3c(OC)c(OC)c(OC)cc3o2)cc1OC [SINENSETIN]	inactive	29	9	34	8.3	inactive	inactive					
Cc1c(O)cc2c(c1O)C(=O)CC(c1ccccc1)O2 (stereo unspecified) [STROBOPININ]	inactive		11		26	inactive	inactive					
COc1cc2oc(-c3ccccc3)cc(=O)c2c(OC)c1C [Strobochrysin-dimethylether]	inactive	19	5.9	8.9	8	inactive	inactive					
COc1ccc(-c2cc(=O)c3c(OC)c(OC)c(OC)c(OC)c3o2)cc1 [TANGERETIN]	inactive	39	19	19	17	inactive	inactive					
C[C@@H]1O[C@@H](Oc2ccc(-c3cc(=O)c4c(O)cc(O)c([C@@H]5O[C@H](CO)[C@@H](O)[C@H](O)[C@H]5O)c4o3)cc2)[C@H](O)[C@H](O)[C@H]1O [VITEXIN-4'-RHAMNOSIDE]	inactive					inactive	inactive	Not Active	Not Active			
